Patent US12692253B2, “Antimicrobial compounds and methods” (Curza Global, LLC, priority 2019, dated 2026)

Tests used:
[1] = system: E. coli S30 extract (bacterial protein synthesis); experiment: E. coli S30 extract coupled transcription-translation luciferase assay (inhibition of bacterial protein synthesis); assay type: biochemical; conditions: class by IC50 or % inhibition @ 1 μM, read-out: S30 IC50 (μM/% inhib.)
Method: E. coli S30 extract: Inhibition of bacterial protein synthesis was determined using the E. coli S30 Extract System for Circular DNA (Promega catalog #L-2010) and Luciferase Assay Reagent (Promega catalog #E1500) with slight modifications to a published protocol. Fyfe, C., Sutcliffe, J. A. and Grossman, T. H. (2012) “Development and characterization of a Pseudomonas aeruginosa in vitro coupled transcription-translation assay system for evaluation of translation inhibitors” J. Microbiol. Methods 90(3), 256-261.
Compounds were serial diluted in 0.5 mL microcentrifuge tubes by mixing and transferring 50 μL from the highest concentration to 50 μL of water, mixing and transferring 50 μL of this 2-fold dilution to 50 μL of water. This mixing and transferring was repeated so that there are a total of 8 tubes with serial dilutions of compound at 10× the desired screening concentration that are ultimately diluted to 1× by the addition of S30 luciferase synthesis mixture. Serial dilutions of compounds were added (2 μL) to wells in a black round bottom 96-well plate. Water (2 μL) was used as a “no inhibitor” control in 4 wells/plate. No DNA control reaction mixture (20 μL; see below) was used as a control in 4 wells/plate for background luminescence. S30 luciferase synthesis mixture (18 μL; see below) was added to wells with compounds or water mixture and incubated at 37° C. for 1 hour. Reactions were stopped by transferring to 4° C. refrigerator for 5 minutes then 25 μL of luciferase activity mix was added. Luminescence was measured using a BioTek Synergy HTX plate reader. % Inhibition was determined relative to no inhibitor controls. • S30 luciferase synthesis mixture: • 445 μL S30 extract, circular • 712 μL S30 Premix without amino acids • 4.45 μL pBESTluc™ DNA (1 μg/μL) • 78 μL complete amino acid mixture • 267 μL water • No DNA control: • 20 μL S30 extract, circular • 32 μL S30 Premix without amino acids • 7 μL complete amino acid mixture • 21 μL water Rabbit Reticulocyte lysate

[2] = biological target: Rabbit Reticulocyte Lysate (eukaryotic protein synthesis); experiment: Rabbit reticulocyte lysate luciferase assay (inhibition of eukaryotic protein synthesis); assay type: biochemical; conditions: class by IC50 or % inhibition @ 1 μM, read-out: Rabbit reticulocyte IC50 (μM/% inhib.)
Method: Inhibition of eukaryotic protein synthesis was determined using the Rabbit Reticulocyte Lysate System, Nuclease-Treated from Promega (catalog #L-4960) with slight modifications to the manufacturer's protocol. Compounds were serial diluted in 0.5 mL microcentrifuge tubes by mixing and transferring 50 μL from the highest concentration to 50 μL of water, mixing and transferring 50 μL of this 2-fold dilution to 50 μL of water. This mixing and transferring was repeated so that there are a total of 8 tubes with serial dilutions of compound at 10× the desired screening concentration that are ultimately diluted to 1× by the addition of rabbit reticulocyte luciferase synthesis mixture. Serial dilutions of compounds were added (2.5 μL) to wells in a black round bottom 96-well plate. Water (2.5 μL) was used as a “no inhibitor” control in 4 wells/plate. No RNA control reaction mixture (2 μL; see below) was used as a control in 4 wells/plate for background luminescence. Rabbit reticulocyte luciferase synthesis mixture (22.5 μL; see below) was added to wells with compounds or water mixture and incubated at 30° C. for 90 minutes. Luciferase assay reagent (25 μL) was added with luminescence measured using a BioTek Synergy HTX plate reader. % Inhibition was determined relative to no inhibitor controls.
Rabbit Reticulocyte Luciferase Synthesis Mixture:
• 1,000 μL rabbit reticulocyte lysate • 5.7 μL Luciferase Control RNA (1 μg/μL) • 26 μL complete amino acid mixture • 395 μL water • No RNA Control • 70 μL rabbit reticulocyte lysate • 2 μL complete amino acid mixture • 28 μL water Minimum Inhibitory Concentration (MIC)

E. coli (Ec) = experiment: Broth microdilution minimum inhibitory concentration (MIC), CLSI; assay type: cell-based; conditions: growth medium supplemented with sodium bicarbonate; for MIC: Escherichia coli, read-out: E. coli + bicarb MIC
Method: (§1) A certified BSL-2 laboratory was used for testing. Compounds were evaluated using the broth microdilution minimum inhibitory concentration (MIC) and minimum bactericidal concentration (MBC) assays defined by Clinical and Laboratory Standards Institute (CLSI) in the M26-A guideline against S. aureus (Sa), E. coli (Ec), K. pneumoniae (Kp), A. baumannn (Ab), E. faecalis (Ef) and P. aeruginosa (Pa).
(§2) MICs were determined using the Clinical Laboratory and Standards Institute (CLSI) Broth Microdilution Method with slight modification. Clinical and Laboratory Standards Institute (2012). “Methods for dilution antimicrobial susceptibility tests for bacteria that grow aerobically; approved standard, 9th ed. M07-A9 Clinical and Laboratory Standards Institute, Wayne, PA” Serial two-fold dilutions of compounds are prepared in sterile clear round-bottom 96-well plates.
(§3) To prepare microdilution trays, two-fold dilutions of antimicrobial agent are prepared in growth medium: Cation-Adjusted Mueller-Hinton Broth (CAMHB), or CAMHB supplemented with sodium bicarbonate (6.25 or 25 mM final concentration prepared from a 1.0M stock solution) or CAMHB supplemented with heat inactivated human serum (Fisher Cat. #BP2657100) 0-50% by adding 200 µL of the highest concentration to be tested (64 μg/mL, for example) in row A, mixing and transferring 100 μL from row A to 100 μL growth medium in row B, then repeating the mixing and transferring through row H of the 96-well plate, discarding the excess […] remaining. This slight modification to the CLSI protocol enables evaluation of MICs for 3 compounds per plate in triplicate, albeit with only 8 compound dilutions (CLSI protocol enables 2 compounds in triplicate with 10 dilutions). Bacterial suspensions are added to a final concentration of 5×10^4 CFU/well by adding 5 μL of a 1:10 dilution of a 0.5 McFarland suspension (1×10^8 CFU/mL) for each bacterium evaluated. Bacterial suspensions were prepared using the growth method described by CLSI. Well-isolated colonies (3-5 from an agar plate) were selected using a sterile loop and used to inoculate a tube containing 4 mL of CAMHB. The cultures are incubated at 35±2° C. until it achieves or exceeds the turbidity of the 0.5 McFarland standard, determined by measuring A600 (usually two to six hours). When growth exceeds a 0.5 McFarland standard, the turbidity is adjusted with broth to be equivalent to a 0.5 McFarland standard.

P. aeruginosa (Pa) = experiment: as above; assay type: cell-based; conditions: Pseudomonas aeruginosa, growth medium supplemented with sodium bicarbonate, read-out: Pa MIC + bicarb
Method: as §1, §2, §3

A. baumannn (Ab) = experiment: as above; assay type: cell-based; conditions: Acinetobacter baumannii, read-out: Ab + bicarb MIC
Method: as §1, §2, §3

E. faecalis (Ef) = experiment: as above; assay type: cell-based; conditions: Enterococcus faecalis, growth medium supplemented with sodium bicarbonate, read-out: Ef + bicarb MIC
Method: as §1, §2, §3

Structure (SMILES)	IC50 [1]	IC50 [2]	MIC (E. coli (Ec))	MIC (P. aeruginosa (Pa))	MIC (A. baumannn (Ab))	MIC (E. faecalis (Ef))	E. coli + bicarb MIC (E. coli (Ec))
Cc1cc(-n2ccc(NC(=O)N3CCN(C(=O)C(C)(C)N)CC3)nc2=O)ccc1CN1C[C@@H]2[C@@H](N)[C@@H]2C1 [Compound 2]	< 0.5 µM	≥ 1 µM	< 8 µg/mL	–	–	–	–
CC(C)(N)C(=O)N1CCN(C(=O)Nc2ccn(-c3ccc(CN4C[C@@H]5[C@@H](N)[C@@H]5C4)c(Cl)c3)c(=O)n2)CC1 [Compound 7]	< 0.5 µM	≥ 1 µM	< 8 µg/mL	> 32 µg/mL	–	–	–
CC(C)(N)C(=O)N1CCN(C(=O)Nc2ccn(-c3ccc(CN4C[C@H](N)C5(CC5)C4)cc3)c(=O)n2)CC1 [Compound 16]	≥ 1 µM	≥ 1 µM	8 to 32 µg/mL	–	–	–	–
C[C@H]1CN(C(=O)C(C)(C)N)CCN1C(=O)Nc1ccn(-c2ccc(CN3C[C@@H]4[C@@H](N)[C@@H]4C3)cc2)c(=O)n1 [Compound 17]	< 0.5 µM	≥ 1 µM	< 8 µg/mL	> 32 µg/mL	–	–	–
C[C@](N)(CF)C(=O)N1CCN(C(=O)Nc2ccn(-c3ccc(CN4C[C@@H]5[C@@H](N)[C@@H]5C4)cc3)c(=O)n2)CC1 [Compound 18]	< 0.5 µM	≥ 1 µM	< 8 µg/mL	–	–	–	–
CC(C)(N)C(=O)N1CCN(C(=O)Nc2ccn(-c3ccc(CN4C[C@@H](N)C5(CC5)C4)cc3)c(=O)n2)CC1 [Compound 19]	0.5 to 1 µM	≥ 1 µM	< 8 µg/mL	–	–	–	–
CC(C)(N)C(=O)N1CCN(C(=O)Nc2ccn(-c3ccc(CN4CCC5(CC5N)C4)cc3)c(=O)n2)CC1 (centres unmarked) [Compound 21]	< 0.5 µM	≥ 1 µM	< 8 µg/mL	–	–	–	–
CC(C)(N)CN1CCN(C(=O)Nc2ccn(-c3ccc(CN4C[C@@H]5[C@@H](N)[C@@H]5C4)cc3)c(=O)n2)CC1 [Compound 24]	0.5 to 1 µM	≥ 1 µM	< 8 µg/mL	–	–	–	–
C[C@@H]1CN(C(=O)Nc2ccn(-c3ccc(CN4C[C@@H]5[C@@H](N)[C@@H]5C4)cc3)c(=O)n2)CCN1C(=O)C(C)(C)N [Compound 31]	< 0.5 µM	≥ 1 µM	< 8 µg/mL	> 32 µg/mL	–	–	–
C[C@@H]1CN(C(=O)[C@@](C)(N)CO)CCN1C(=O)Nc1ccn(-c2ccc(CN3C[C@@H]4[C@@H](N)[C@@H]4C3)cc2)c(=O)n1 [Compound 35]	< 0.5 µM	≥ 1 µM	–	–	> 32 µg/mL	8 to 32 µg/mL	–
C[C@](N)(CO)C(=O)N1CCN(C(=O)Nc2ccn(-c3ccc(CN4CCC5(CC4)CC(N)C5)cc3)c(=O)n2)CC1 [Compound 37]	< 0.5 µM	≥ 1 µM	< 8 µg/mL	8 to 32 µg/mL	–	–	–
CC(C)(N)C(=O)N1CCN(C(=O)Nc2ccn(-c3ccc(CN4CCC5(CC4)CC5N)cc3)c(=O)n2)CC1 (centres unmarked) [Compound 39]	< 0.5 µM	≥ 1 µM	< 8 µg/mL	–	–	–	–
CC(C)(N)CN1CCN(C(=O)Nc2ccn(-c3ccc(CN4C[C@@H]5[C@@H](N)[C@@H]5C4)cc3)c(=O)n2)CC1=O [Compound 47]	0.5 to 1 µM	≥ 1 µM	8 to 32 µg/mL	–	–	–	–
NC[C@H]1[C@@H]2CCN(C(=O)Nc3ccn(-c4ccc(CN5C[C@@H]6[C@@H](N)[C@@H]6C5)cc4)c(=O)n3)C[C@H]12 [Compound 50]	≥ 1 µM	≥ 1 µM	–	–	–	–	+++ (An MIC value (μg/mL) that is less than 8 μg/mL)
NC[C@H]1[C@@H]2CCN(C(=O)Nc3ccn(-c4ccc(CN5C[C@@H]6[C@@H](N)[C@@H]6C5)cc4)c(=O)n3)C[C@H]12 [Compound 51]	≥ 1 µM	≥ 1 µM	–	–	–	–	+ (An MIC (μg/mL) value that is 32 μg/mL or greater)
N[C@@H]1[C@H]2CN(Cc3ccc(-n4ccc(NC(=O)N5CCC(C6OCCC[C@@H]6N)CC5)nc4=O)cc3)C[C@@H]12 (some centres unmarked) [Compound 52]	≥ 1 µM	≥ 1 µM	< 8 µg/mL	–	–	–	–
C[C@](N)(CO)C(=O)N1CCN(C(=O)Nc2ccn(-c3ccc(CN4C[C@@H]5[C@@H](CN)[C@@H]5C4)cc3)c(=O)n2)CC1 [Compound 69]	< 0.5 µM	≥ 1 µM	< 8 µg/mL	–	–	–	–
CC(C)(N)C(=O)N1CCN(C(=O)Nc2ccn(-c3ccc(CN4CC5CC5(CN)C4)cc3)c(=O)n2)CC1 (centres unmarked) [Compound 71]	< 0.5 µM	≥ 1 µM	< 8 µg/mL	–	–	–	–
CC(C)(N)C(=O)N1CCN(C(=O)Nc2ccn(-c3ccc(CN4CC[C@@H]5[C@@H](CN)[C@@H]5C4)cc3)c(=O)n2)CC1 [Compound 72]	< 0.5 µM	≥ 1 µM	< 8 µg/mL	–	–	–	–
CC(C)(N)C(=O)N1CCN(C(=O)Nc2ccn(-c3ccc(CN4C[C@H]5CNC[C@H]5C4)cc3)c(=O)n2)CC1 [Compound 76]	< 0.5 µM	≥ 1 µM	< 8 µg/mL	–	–	–	–
CC(C)(N)C(=O)N1CCN(C(=O)Nc2ccn(-c3ccc(CN4CC[C@H]5NCC[C@H]5C4)cc3)c(=O)n2)CC1 [Compound 77]	< 0.5 µM	≥ 1 µM	< 8 µg/mL	–	–	–	–
CC(C)(N)C(=O)N1CCN(C(=O)Nc2ccn(-c3ccc(CN4CCC5(CCNCC5)CC4)cc3)c(=O)n2)CC1 [Compound 82]	< 0.5 µM	≥ 1 µM	< 8 µg/mL	–	–	–	–
C[C@](N)(CO)C(=O)N1CCN(C(=O)Nc2ccn(-c3ccc(CCN4C[C@@H]5[C@@H](N)[C@@H]5C4)cc3)c(=O)n2)CC1 [Compound 85]	≥ 1 µM	–	> 32 µg/mL	–	–	–	–
CC(C)(N)C(=O)N1CCN(C(=O)Nc2ccn(-c3ccc(CCN4CCC5(CC4)CC(N)C5)cc3)c(=O)n2)CC1 [Compound 91]	< 0.5 µM	≥ 1 µM	< 8 µg/mL	< 8 µg/mL	–	–	–
